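The compound was tested at five concentrations on cells cultured in 96-well plates, with a 48-hour exposure period. Here, GI50 denotes the concentration required for 50% inhibition of growth.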 Calls of active or inactive are those of the source. Rule as the data show it: active = GI50 up to about 1.1 µM and inactive = higher. Non-standard residues stand in square brackets, D forms with d. Residues, ends and D or L forms follow the SMILES beside them. ξ: configuration not given here. *: point of attachment. ξF = NC(Cc1ccccc1)C(=O)O; Cbz = O=C(OCc1ccccc1)*

Here are results for eleven compounds from ChEMBL document CHEMBL1201862, “PubChem BioAssay data set” (2004).

Experiment in all cases: NCI-60 cell line screen, 48 h
For experiment [1], the system named is ACHN.
Experiment [2] relates to HCT-15.
The subject of experiment [3] is HOP-92.
Experiment [4] concerns IGROV-1.
Experiment [5] has as its system K562.
The test system of experiment [6] is KM12.
Experiment [7] deals with M14.
Experiment [8] has as its system MDA-MB-231.
Experiment [9] deals with MDA-N.
Experiment [10] has as its system NCI-H226.
Experiment [11] concerns RXF 393.
For experiment [12], the system named is SF-539.
Experiment [13] has as its system SK-MEL-28.
In experiment [14] the test system is SK-MEL-2.
The subject of experiment [15] is SK-MEL-5.
Experiment [16] has as its system SK-OV-3.
For experiment [17], the system named is SNB-75.
Experiment [18] relates to SW-620.
Experiment [19] relates to UACC-257.
For experiment [20], the system named is HL-60.

In the case of `O=c1cc(N2CCN(c3cc(=O)n4ccccc4n3)CC2)oc2ccccc12`, the GI50 is > 100 µM (inactive) in [1]; 30.6 µM in [2]; 72.4 µM (inactive) in experiment [3]; 95.5 µM (inactive) in experiment [4]; 47.1 µM (inactive) in experiment [5]; 35.4 µM (inactive) in experiment [6]. Moreover, the GI50 is 34.7 µM (inactive) in [7]; 61.9 µM (inactive) in experiment [8]; > 100 µM (inactive) in [9]; > 76.2 µM (inactive) in [10]; 36.1 µM (inactive) in experiment [11]; > 100 µM (inactive) in experiment [12]. The GI50 in experiment [13] is > 100 µM (inactive); in experiment [14], > 100 µM (inactive); in [15] it was 65.9 µM (inactive); in experiment [16], > 100 µM (inactive); in experiment [17], 9.06 µM (inactive); in experiment [18], 29.7 µM (inactive). For the same compound, the GI50 in experiment [19] is > 24 µM (inactive).
As to `CSc1nc(SC)c2ncn(C3CC(Oc4ccc(C)cc4)C(COc4ccc(C)cc4)O3)c2n1` (configuration not stated), the GI50 in experiment [1] is > 100 µM (inactive); in experiment [2], > 100 µM; in experiment [20], > 100 µM (inactive); in experiment [3], > 100 µM (inactive); in [4] it was > 100 µM (inactive); in experiment [6], > 100 µM (inactive). In addition, the GI50 in experiment [7], in experiment [8], in experiment [9], in experiment [10], in [12] and in experiment [13] was > 100 µM (inactive) in each case. In addition, the GI50 in experiment [14] was > 100 µM (inactive); in [15], > 100 µM (inactive); in experiment [16], > 100 µM (inactive); in [17], 26.5 µM (inactive); in experiment [18], > 100 µM (inactive); in experiment [19], > 100 µM (inactive).
On to `O=C(COc1ccc(OCC(=O)N2C(=O)CN(c3ccc(Cl)cc3)C2=S)cc1)N1C(=O)CN(c2ccc(Cl)cc2)C1=S`, for which the GI50 in [1] was 26.4 µM (inactive); in experiment [2] it was 29.9 µM; in experiment [3] it was 21.8 µM (inactive); in experiment [4], 26.6 µM (inactive); in experiment [5], 29.3 µM (inactive); in experiment [6], 18.9 µM (inactive). In addition, the GI50 was 29 µM (inactive) in experiment [7]; 19.8 µM (inactive) in [8]; 29.9 µM (inactive) in experiment [9]; 23.9 µM (inactive) in experiment [10]; 22.8 µM (inactive) in experiment [11]; 36.3 µM (inactive) in experiment [13]. Besides, the GI50 in [14] is 13.3 µM (inactive); in experiment [15] it was 16.2 µM (inactive); in [16], 26.9 µM (inactive); in experiment [17] it was 40.6 µM (inactive); in [18] it was 31.3 µM (inactive); in experiment [19], 27.8 µM (inactive).
For `Oc1c(Br)cc(/C=C/c2cccc(/C=C/c3cc(Br)c(O)c(Br)c3)n2)cc1Br`, the GI50 is 6.38 µM (inactive) in experiment [1]; 6.22 µM in experiment [2]; 2.03 µM (inactive) in [20]; 12.1 µM (inactive) in [3]; 13.4 µM (inactive) in [4]; 3.3 µM (inactive) in experiment [5]. In addition, the GI50 is 5.66 µM (inactive) in [6]; 13.8 µM (inactive) in [7]; 14.8 µM (inactive) in [8]; 18.8 µM (inactive) in experiment [9]; 13.7 µM (inactive) in [12]; 12.1 µM (inactive) in [13]. Moreover, the GI50 was 4.89 µM (inactive) in [14]; 7.06 µM (inactive) in [15]; 20.6 µM (inactive) in experiment [16]; 4.34 µM (inactive) in experiment [17]; 17.7 µM (inactive) in experiment [18]; 15.7 µM (inactive) in experiment [19].
Take `C=CCN1C[C@H](C)N([C@H](c2ccc(C(=O)N(CC)CCO)cc2)c2cccc(OC)c2)C[C@H]1C`: the GI50 in experiment [1] was > 100 µM (inactive); in experiment [2], > 100 µM; in experiment [20] it was > 100 µM (inactive); in [3], 13.6 µM (inactive); in [4], > 100 µM (inactive); in [6], > 100 µM (inactive). Further, the GI50 is > 100 µM (inactive) in experiment [7]; > 100 µM (inactive) in [8]; > 100 µM (inactive) in experiment [9]; 50.1 µM (inactive) in experiment [10]; > 100 µM (inactive) in experiment [12]; > 100 µM (inactive) in experiment [13]. Also, the GI50 is > 100 µM (inactive) in experiment [14]; 54.7 µM (inactive) in experiment [15]; 71.8 µM (inactive) in experiment [16]; > 100 µM (inactive) in experiment [18]; 47 µM (inactive) in experiment [19].
In the case of `O=C(C=P(c1ccccc1)(c1ccccc1)c1ccccc1)C12CC3CC(CC(C3)C1)C2`, the GI50 in experiment [1] is 16.2 µM (inactive); in [2], 13.4 µM; in [20], 8.75 µM (inactive); in [3], 20.5 µM (inactive); in experiment [4], 16 µM (inactive); in experiment [5] it was < 0.01 µM (active). Moreover, the GI50 in experiment [6] is 15 µM (inactive); in experiment [7], 16 µM (inactive); in experiment [8], 15.7 µM (inactive); in experiment [9], 14.3 µM (inactive); in [12], 20 µM (inactive); in experiment [13], 16.8 µM (inactive). Further, the GI50 is 15.8 µM (inactive) in [14]; 14.8 µM (inactive) in experiment [15]; 16.9 µM (inactive) in experiment [17]; 16.1 µM (inactive) in experiment [18]; 17.2 µM (inactive) in experiment [19].
Regarding `C#CC(=O)OCC#CCOC(=O)C#C`, the GI50 was 18.3 µM (inactive) in experiment [1]; 18.7 µM in experiment [2]; 16.9 µM (inactive) in experiment [3]; 19.3 µM (inactive) in experiment [6]; 23.4 µM (inactive) in experiment [7]; 25.5 µM (inactive) in [8]. Moreover, the GI50 in [9] was 38.8 µM (inactive); in experiment [10], 19 µM (inactive); in [11], 19.1 µM (inactive); in experiment [12], 15.3 µM (inactive); in experiment [14], 20.2 µM (inactive); in experiment [15] it was 72.9 µM (inactive). For the same compound, the GI50 in [16] was > 100 µM (inactive); in experiment [18], 20 µM (inactive); in [19] it was > 100 µM (inactive).
Take `Cn1c2ccccc2c(=S)c2ccccc21`: the GI50 in [1] is > 100 µM (inactive); in experiment [2] it was > 100 µM; in experiment [3], > 100 µM (inactive); in [4] it was > 100 µM (inactive); in experiment [5] it was > 100 µM (inactive); in experiment [6], > 100 µM (inactive). The GI50 in experiment [7], in experiment [8], in [9], in [10], in experiment [11] and in experiment [12] was > 100 µM (inactive) in each case. The GI50 in experiment [13], in experiment [14], in experiment [15], in experiment [16], in [17] and in [18] was > 100 µM (inactive) each time. Also, the GI50 in experiment [19] is > 100 µM (inactive).
With `Cc1ccc(/C=C2\CN(C)CC3C2=NN(c2ccccc2)C3c2ccc(C)cc2)cc1` (configuration not stated), the GI50 in experiment [1] is > 100 µM (inactive); in [2], > 100 µM; in experiment [3], > 100 µM (inactive); in experiment [4] it was > 100 µM (inactive); in experiment [5], 46.7 µM (inactive); in experiment [6], > 100 µM (inactive). Also, the GI50 is 57.4 µM (inactive) in experiment [7]; > 100 µM (inactive) in experiment [8]; > 100 µM (inactive) in experiment [9]; > 100 µM (inactive) in experiment [10]; 34.4 µM (inactive) in [11]; > 100 µM (inactive) in experiment [13]. In addition, the GI50 in experiment [14] was 29.4 µM (inactive); in experiment [15] it was > 100 µM (inactive); in [16], 63.8 µM (inactive); in experiment [18], > 100 µM (inactive); in experiment [19], > 100 µM (inactive).
Take `CC(C)=CCC[C@](C)(O[C@@H]1O[C@H](CO)[C@@H](O)[C@H](O)[C@H]1O)[C@H]1CC[C@]2(C)[C@@H]1[C@H](O)C[C@@H]1[C@@]3(C)CC[C@H](O)C(C)(C)[C@@H]3[C@@H](O[C@@H]3O[C@H](CO)[C@@H](O)[C@H](O)[C@H]3O[C@@H]3O[C@@H](C)[C@H](O)[C@@H](O)[C@H]3O)C[C@]12C.CC(C)=CCC[C@](C)(O[C@@H]1O[C@H](CO)[C@@H](O)[C@H](O)[C@H]1O)[C@H]1CC[C@]2(C)[C@@H]1[C@H](O)C[C@@H]1[C@@]3(C)CC[C@H](O)C(C)(C)[C@@H]3[C@@H](O[C@@H]3O[C@H](CO)[C@@H](O)[C@H](O)[C@H]3O[C@@H]3O[C@H](CO)[C@@H](O)[C@H](O)[C@H]3O)C[C@]12C`: the GI50 in [1] was > 75 µM (inactive); in experiment [2], > 75 µM; in experiment [20], > 75 µM (inactive); in experiment [3], > 75 µM (inactive); in experiment [4], > 75 µM (inactive); in experiment [5], > 75 µM (inactive). Also, the GI50 in experiment [6], in [7], in [8], in [9], in experiment [10] and in experiment [12] was > 75 µM (inactive) each time. In addition, the GI50 in [13], in experiment [14], in [15], in [16], in experiment [17] and in [18] was > 75 µM (inactive) each time. The GI50 in experiment [19] is > 75 µM (inactive).
On to `CCOC(=O)CNC(=O)C(Cc1ccccc1)NC(=O)OCc1ccccc1` (configuration not stated) (Cbz-[ξF]-Gly-OEt), for which the GI50 in [1] is > 100 µM (inactive); in experiment [2], > 100 µM; in [20], > 100 µM (inactive); in [3], > 100 µM (inactive); in experiment [4], > 100 µM (inactive); in [5] it was > 100 µM (inactive). For the same compound, the GI50 in experiment [6], in experiment [7], in experiment [8], in [9], in experiment [10] and in [15] was > 100 µM (inactive) in each case. Moreover, the GI50 in experiment [16], in experiment [17] and in [18] was > 100 µM (inactive) throughout.
